Test results taken from ChEMBL document CHEMBL1201862, “PubChem BioAssay data set” (2004).
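48-hour exposure; five concentrations; linearly interpolated endpoints. Here, GI50 denotes the concentration required for 50% inhibition of growth.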 Active and inactive are the calls of the source. No stated cut-off is given here; in the data, active = GI50 up to about 1.1 µM and inactive = higher.

Tests used:
Assay in all cases: NCI tumour cell line growth inhibition, 48 h
[1] = tested on: 786-0
[2] = tested on: A498
[3] = tested on: A549
[4] = tested on: ACHN
[5] = tested on: CAKI-1
[6] = tested on: CCRF-CEM
[7] = tested on: COLO 205
[8] = tested on: DMS-114
[9] = tested on: DMS-273
[10] = tested on: EKVX
[11] = tested on: HCC 2998
[12] = tested on: HCT-116
[13] = tested on: HCT-15
[14] = tested on: HL-60
[15] = tested on: HOP-18
[16] = tested on: HOP-62
[17] = tested on: HOP-92
[18] = tested on: HT-29
[19] = tested on: IGROV-1
[20] = tested on: K562
[21] = tested on: KM-20L2
[22] = tested on: KM12
[23] = tested on: LOX IMVI
[24] = tested on: LXFL 529
[25] = tested on: M14
[26] = tested on: M19-MEL
[27] = tested on: MOLT-4
[28] = tested on: Malme-3M
[29] = tested on: NCI-H226
[30] = tested on: NCI-H23
[31] = tested on: NCI-H460
[32] = tested on: NCI-H522
[33] = tested on: OVCAR-3
[34] = tested on: OVCAR-5
[35] = tested on: OVCAR-8
[36] = tested on: RPMI-8226
[37] = tested on: RXF 393
[38] = tested on: RXF 631
[39] = tested on: SF-268
[40] = tested on: SF-295
[41] = tested on: SF-539
[42] = tested on: SK-MEL-28
[43] = tested on: SK-MEL-2
[44] = tested on: SK-MEL-5
[45] = tested on: SK-OV-3
[46] = tested on: SN12C
[47] = tested on: SNB-19
[48] = tested on: SNB-75
[49] = tested on: SNB-78
[50] = tested on: SR
[51] = tested on: SW-620
[52] = tested on: TK-10
[53] = tested on: U-251
[54] = tested on: UACC-257
[55] = tested on: UACC-62
[56] = tested on: UO-31
[57] = tested on: XF498
[58] = tested on: BT-549
[59] = tested on: DLD-1
[60] = tested on: DU-145
[61] = tested on: Hs-578T
[62] = tested on: MCF7
[63] = tested on: MDA-MB-231
[64] = tested on: MDA-MB-435
[65] = tested on: MDA-N
[66] = tested on: NCI/ADR-RES
[67] = tested on: OVCAR-4
[68] = tested on: PC-3
[69] = tested on: T47D

For `COc1ccc(C2CC(C)=Nc3c(O)nc(S)nc3N2)cc1` (stereo unspecified), the GI50 [1] was 17.1 µM (inactive), the GI50 [2] was 19.2 µM (inactive) and the GI50 [3] was 16.9 µM (inactive). For the same compound, the GI50 [4] was 18.7 µM (inactive), the GI50 [5] was 27.6 µM (inactive) and the GI50 [6] was 24.2 µM (inactive). The GI50 [7] was 18.6 µM (inactive), the GI50 [8] was 21 µM (inactive) and the GI50 [9] was 16.7 µM (inactive). The GI50 [10] was 22.1 µM (inactive), the GI50 [11] was 16.7 µM (inactive) and the GI50 [12] was 16.5 µM (inactive). The GI50 [13] was 16.3 µM, the GI50 [14] was 17.7 µM (inactive) and the GI50 [15] was 62.7 µM (inactive). The GI50 [16] was 25.4 µM (inactive), the GI50 [17] was > 100 µM (inactive) and the GI50 [18] was 28.5 µM (inactive). For the same compound, the GI50 [19] was 18.8 µM (inactive), the GI50 [20] was 16.6 µM (inactive) and the GI50 [21] was 16.7 µM (inactive). The GI50 [22] was 17.4 µM (inactive), the GI50 [23] was 17.4 µM (inactive) and the GI50 [24] was 16.6 µM (inactive). For the same compound, the GI50 [25] was 19.6 µM (inactive), the GI50 [26] was 16.9 µM (inactive) and the GI50 [27] was 23.1 µM (inactive). The GI50 [28] was > 100 µM (inactive), the GI50 [29] was 17.2 µM (inactive) and the GI50 [30] was 30.5 µM (inactive). The GI50 [31] was 16.6 µM (inactive), the GI50 [32] was 16.3 µM (inactive) and the GI50 [33] was 22.4 µM (inactive). For the same compound, the GI50 [34] was 23.4 µM (inactive), the GI50 [35] was 20 µM (inactive) and the GI50 [36] was 22.3 µM (inactive). For the same compound, the GI50 [37] was 18.8 µM (inactive), the GI50 [38] was 25.6 µM (inactive) and the GI50 [39] was 37.7 µM (inactive). For the same compound, the GI50 [40] was 22 µM (inactive), the GI50 [41] was 24.5 µM (inactive) and the GI50 [42] was 27 µM (inactive). The GI50 [43] was 63.8 µM (inactive), the GI50 [44] was 16.7 µM (inactive) and the GI50 [45] was 18.1 µM (inactive). The GI50 [46] was 19.4 µM (inactive), the GI50 [47] was 18.7 µM (inactive) and the GI50 [48] was 17.6 µM (inactive). The GI50 [49] was 46.7 µM (inactive), the GI50 [50] was 25.6 µM (inactive) and the GI50 [51] was 5.27 µM (inactive). For the same compound, the GI50 [52] was 20.8 µM (inactive), the GI50 [53] was 17.3 µM (inactive) and the GI50 [54] was 16.8 µM (inactive). The GI50 [55] was 17.4 µM (inactive), the GI50 [56] was 17.9 µM (inactive) and the GI50 [57] was 24.8 µM (inactive).

`COC(=O)N/N=C(/c1nc2ccc([N+](=O)[O-])cc2nc1O)C(O)c1ccc(OC)c(OC)c1` (stereo unspecified) was tested, and the GI50 [1] was > 69 µM (inactive), the GI50 [2] was > 67.8 µM (inactive) and the GI50 [3] was > 100 µM (inactive). For the same compound, the GI50 [4] was > 100 µM (inactive), the GI50 [58] was > 100 µM (inactive) and the GI50 [5] was > 100 µM (inactive). The GI50 [6] was 37.8 µM (inactive), the GI50 [7] was 39.4 µM (inactive) and the GI50 [59] was > 100 µM (inactive). The GI50 [8] was 24.7 µM (inactive), the GI50 [9] was 25 µM (inactive) and the GI50 [60] was > 100 µM (inactive). The GI50 [10] was > 100 µM (inactive), the GI50 [11] was > 100 µM (inactive) and the GI50 [12] was 97.1 µM (inactive). The GI50 [13] was 46.8 µM, the GI50 [14] was > 68.5 µM (inactive) and the GI50 [15] was > 100 µM (inactive). For the same compound, the GI50 [16] was > 60.5 µM (inactive), the GI50 [17] was > 100 µM (inactive) and the GI50 [18] was > 72.9 µM (inactive). For the same compound, the GI50 [61] was 59 µM (inactive), the GI50 [19] was > 100 µM (inactive) and the GI50 [20] was 55.2 µM (inactive). The GI50 [21] was > 100 µM (inactive), the GI50 [22] was 49.9 µM (inactive) and the GI50 [23] was 28.5 µM (inactive). For the same compound, the GI50 [24] was 87.1 µM (inactive), the GI50 [25] was > 100 µM (inactive) and the GI50 [26] was > 100 µM (inactive). For the same compound, the GI50 [62] was 88.1 µM (inactive), the GI50 [63] was 64.3 µM (inactive) and the GI50 [64] was > 100 µM (inactive). The GI50 [65] was > 100 µM (inactive), the GI50 [27] was 33 µM (inactive) and the GI50 [28] was > 100 µM (inactive). For the same compound, the GI50 [29] was > 100 µM (inactive), the GI50 [30] was > 76.7 µM (inactive) and the GI50 [31] was 59 µM (inactive). The GI50 [32] was 40.5 µM (inactive), the GI50 [66] was 92 µM (inactive) and the GI50 [33] was > 54.7 µM (inactive). The GI50 [67] was > 100 µM (inactive), the GI50 [34] was > 100 µM (inactive) and the GI50 [35] was > 100 µM (inactive). For the same compound, the GI50 [68] was 76.2 µM (inactive), the GI50 [36] was 41.9 µM (inactive) and the GI50 [37] was > 100 µM (inactive). The GI50 [38] was 44.5 µM (inactive), the GI50 [39] was > 81.1 µM (inactive) and the GI50 [40] was 98.6 µM (inactive). The GI50 [41] was > 100 µM (inactive), the GI50 [42] was > 100 µM (inactive) and the GI50 [43] was > 100 µM (inactive). For the same compound, the GI50 [44] was 29.8 µM (inactive), the GI50 [45] was > 100 µM (inactive) and the GI50 [46] was > 100 µM (inactive). The GI50 [47] was > 100 µM (inactive), the GI50 [48] was > 100 µM (inactive) and the GI50 [49] was 28.4 µM (inactive). For the same compound, the GI50 [50] was 19.5 µM (inactive), the GI50 [51] was > 100 µM (inactive) and the GI50 [69] was 80 µM (inactive). The GI50 [52] was > 100 µM (inactive), the GI50 [53] was > 100 µM (inactive) and the GI50 [54] was 47.1 µM (inactive). The GI50 [55] was > 100 µM (inactive), the GI50 [56] was > 100 µM (inactive) and the GI50 [57] was 59.2 µM (inactive).

In the case of `O=C1C=C(Nc2ccc(Cl)cc2C(=O)c2ccccc2)c2ccccc2C1=O`, the GI50 [1] is reported as > 100 µM (inactive), the GI50 [2] is reported as > 100 µM (inactive) and the GI50 [3] is reported as > 100 µM (inactive). The GI50 [4] was > 100 µM (inactive), the GI50 [5] was > 100 µM (inactive) and the GI50 [6] was > 100 µM (inactive). The GI50 [7] was > 100 µM (inactive), the GI50 [59] was > 100 µM (inactive) and the GI50 [8] was > 100 µM (inactive). For the same compound, the GI50 [9] was > 100 µM (inactive), the GI50 [10] was > 100 µM (inactive) and the GI50 [11] was > 100 µM (inactive). The GI50 [12] was > 100 µM (inactive), the GI50 [13] was greater than 100 µM and the GI50 [14] was > 100 µM (inactive). For the same compound, the GI50 [15] was > 100 µM (inactive), the GI50 [16] was > 100 µM (inactive) and the GI50 [18] was > 100 µM (inactive). For the same compound, the GI50 [19] was > 100 µM (inactive), the GI50 [20] was > 100 µM (inactive) and the GI50 [21] was > 100 µM (inactive). The GI50 [22] was > 100 µM (inactive), the GI50 [23] was > 100 µM (inactive) and the GI50 [24] was > 100 µM (inactive). The GI50 [25] was > 100 µM (inactive), the GI50 [27] was > 100 µM (inactive) and the GI50 [28] was > 100 µM (inactive). The GI50 [29] was > 100 µM (inactive), the GI50 [30] was > 100 µM (inactive) and the GI50 [31] was > 100 µM (inactive). For the same compound, the GI50 [32] was > 100 µM (inactive), the GI50 [33] was > 100 µM (inactive) and the GI50 [67] was > 100 µM (inactive). The GI50 [34] was > 100 µM (inactive), the GI50 [35] was > 100 µM (inactive) and the GI50 [37] was > 100 µM (inactive). The GI50 [38] was > 100 µM (inactive), the GI50 [39] was > 100 µM (inactive) and the GI50 [40] was > 100 µM (inactive). For the same compound, the GI50 [41] was > 100 µM (inactive), the GI50 [42] was > 100 µM (inactive) and the GI50 [43] was > 100 µM (inactive). For the same compound, the GI50 [44] was > 100 µM (inactive), the GI50 [45] was > 100 µM (inactive) and the GI50 [46] was > 100 µM (inactive). For the same compound, the GI50 [47] was > 100 µM (inactive), the GI50 [48] was > 100 µM (inactive) and the GI50 [49] was > 100 µM (inactive). For the same compound, the GI50 [51] was > 100 µM (inactive), the GI50 [52] was > 100 µM (inactive) and the GI50 [53] was > 100 µM (inactive). For the same compound, the GI50 [54] was > 100 µM (inactive), the GI50 [55] was > 100 µM (inactive) and the GI50 [56] was > 100 µM (inactive). For the same compound, the GI50 [57] was > 100 µM (inactive).
